Laboratory results as given in ChEMBL document CHEMBL1201862, “PubChem BioAssay data set” (2004).
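Each compound was tested at five concentrations against cells in 96-well plates for 48 hours. At the GI50, growth is halved.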 The source made the active and inactive calls. No stated cut-off is given here; in the data, active = GI50 up to about 1.1 µM and inactive = higher.

Experiments:
Assay in all cases: growth of human tumour cells (NCI), 48 h
MDA-MB-435 = tested on: MDA-MB-435
HOP-62 = tested on: HOP-62
EKVX = tested on: EKVX
IGROV-1 = tested on: IGROV-1
OVCAR-3 = tested on: OVCAR-3
SNB-75 = tested on: SNB-75
LOX IMVI = tested on: LOX IMVI
PC-3 = tested on: PC-3
SNB-19 = tested on: SNB-19
SF-268 = tested on: SF-268
RXF 393 = tested on: RXF 393
HCT-116 = tested on: HCT-116
DU-145 = tested on: DU-145
MCF7 = tested on: MCF7
NCI/ADR-RES = tested on: NCI/ADR-RES
SK-MEL-28 = tested on: SK-MEL-28
OVCAR-8 = tested on: OVCAR-8
SK-MEL-5 = tested on: SK-MEL-5
NCI-H23 = tested on: NCI-H23
HOP-92 = tested on: HOP-92

Measured: GI50

COC(=O)[C@@H]1C[C@@]23CCCN4CC[C@@]5(c6cccc(OC)c6N(C=O)[C@]15CC2)[C@@H]43
inactive: MDA-MB-435 > 100 µM | HOP-62 > 100 µM | EKVX > 100 µM | IGROV-1 > 100 µM | OVCAR-3 > 100 µM | SNB-75 78.7 µM | LOX IMVI > 100 µM | PC-3 > 100 µM | SNB-19 > 100 µM | SF-268 > 100 µM | RXF 393 > 100 µM | HCT-116 > 100 µM | DU-145 > 100 µM | MCF7 > 100 µM | NCI/ADR-RES > 100 µM | SK-MEL-28 > 100 µM | OVCAR-8 > 100 µM | SK-MEL-5 > 100 µM | NCI-H23 > 100 µM | HOP-92 > 100 µM

COc1ccc(NS(=O)(=O)c2ccc3ncn(NS(=O)(=O)c4ccc(I)cc4)c(=O)c3c2)cc1
inactive: MDA-MB-435 84.1 µM | HOP-62 > 100 µM | EKVX > 100 µM | IGROV-1 > 100 µM | OVCAR-3 > 100 µM | SNB-75 > 100 µM | LOX IMVI 8.77 µM | PC-3 > 100 µM | SNB-19 > 100 µM | SF-268 > 100 µM | RXF 393 > 100 µM | HCT-116 > 100 µM | DU-145 > 100 µM | MCF7 > 100 µM | NCI/ADR-RES > 100 µM | SK-MEL-28 > 100 µM | OVCAR-8 > 100 µM | SK-MEL-5 > 100 µM | NCI-H23 > 100 µM | HOP-92 > 100 µM

C=C(C)c1nc(Oc2ccccc2)nc(Oc2ccccc2)n1
inactive: MDA-MB-435 10.3 µM | HOP-62 16.1 µM | EKVX 13.6 µM | IGROV-1 9.38 µM | OVCAR-3 6.04 µM | SNB-75 9.75 µM | LOX IMVI 2.08 µM | PC-3 14.6 µM | SNB-19 9.33 µM | SF-268 4.79 µM | RXF 393 2.4 µM | HCT-116 3.53 µM | DU-145 16.5 µM | MCF7 3.08 µM | NCI/ADR-RES 10.9 µM | SK-MEL-28 3.86 µM | OVCAR-8 4.8 µM | SK-MEL-5 13.7 µM | NCI-H23 6.64 µM | HOP-92 4.93 µM

CNC=O
inactive: MDA-MB-435 > 10000 µM | HOP-62 > 3980 µM | EKVX > 10000 µM | IGROV-1 > 10000 µM | OVCAR-3 > 9310 µM | SNB-75 8150 µM | LOX IMVI > 9180 µM | PC-3 > 10000 µM | SNB-19 > 10000 µM | SF-268 > 10000 µM | RXF 393 > 10000 µM | HCT-116 > 10000 µM | DU-145 > 10000 µM | MCF7 > 10000 µM | NCI/ADR-RES > 10000 µM | SK-MEL-28 > 10000 µM | OVCAR-8 > 10000 µM | SK-MEL-5 > 10000 µM | NCI-H23 > 10000 µM | HOP-92 > 9530 µM

N=C(N)SCc1ccc(Cl)c2ccccc12.O=[N+]([O-])c1c(O)c(Cl)cc(Cl)c1Cl
inactive: MDA-MB-435 8.38 µM | HOP-62 11.5 µM | EKVX 7.03 µM | IGROV-1 13 µM | OVCAR-3 9.18 µM | SNB-75 11.1 µM | LOX IMVI 14.4 µM | PC-3 11.9 µM | SNB-19 14.4 µM | SF-268 15.7 µM | RXF 393 7.23 µM | HCT-116 11.8 µM | DU-145 14 µM | MCF7 11.2 µM | NCI/ADR-RES 17.9 µM | SK-MEL-28 14.1 µM | OVCAR-8 17.7 µM | SK-MEL-5 12.6 µM | NCI-H23 12.9 µM | HOP-92 5.89 µM

COc1ccc(/C(CCl)=C(\Nc2ccccc2)c2ccc(OC)c(OC)c2)cc1OC
inactive: MDA-MB-435 > 100 µM | HOP-62 > 100 µM | EKVX > 100 µM | OVCAR-3 > 100 µM | SNB-75 > 100 µM | LOX IMVI > 100 µM | PC-3 65 µM | SNB-19 > 100 µM | SF-268 > 100 µM | RXF 393 36.1 µM | HCT-116 27.6 µM | DU-145 > 100 µM | MCF7 > 100 µM | NCI/ADR-RES > 100 µM | SK-MEL-28 > 100 µM | OVCAR-8 > 100 µM | SK-MEL-5 71.9 µM | NCI-H23 49.3 µM | HOP-92 55.1 µM

CCC(CO)Nc1nc(NCc2ccccc2)c2ncn(C(C)C)c2n1 (stereo not drawn) [(RS)-ROSCOVITINE]
inactive: MDA-MB-435 23.4 µM | HOP-62 11.9 µM | EKVX 18.2 µM | IGROV-1 14.8 µM | OVCAR-3 9.23 µM | SNB-75 13.8 µM | LOX IMVI 16.5 µM | PC-3 17.9 µM | SNB-19 34.9 µM | SF-268 13.7 µM | RXF 393 7.66 µM | HCT-116 8.38 µM | DU-145 35.8 µM | MCF7 15.7 µM | NCI/ADR-RES 15.4 µM | SK-MEL-28 12.8 µM | OVCAR-8 16.7 µM | SK-MEL-5 15.8 µM | NCI-H23 13.6 µM | HOP-92 17.2 µM

Cc1nc2ccc(F)cc2c2c1CCN2c1ccc(Cl)cc1
inactive: MDA-MB-435 6.64 µM | HOP-62 13.1 µM | IGROV-1 7.73 µM | OVCAR-3 7.96 µM | SNB-75 39.6 µM | LOX IMVI 12.5 µM | PC-3 3.85 µM | SNB-19 36.6 µM | SF-268 30.8 µM | RXF 393 18 µM | HCT-116 4.52 µM | DU-145 29.4 µM | MCF7 11.6 µM | NCI/ADR-RES 4.88 µM | SK-MEL-28 12.2 µM | OVCAR-8 9.71 µM | SK-MEL-5 3.56 µM | NCI-H23 5.15 µM | HOP-92 2.69 µM

S=c1nc2[nH]c3ccc(Br)cc3c2n[nH]1
inactive: MDA-MB-435 20.7 µM | EKVX 14.2 µM | IGROV-1 19.3 µM | OVCAR-3 41 µM | SNB-75 40.4 µM | LOX IMVI 30.1 µM | PC-3 43.1 µM | SNB-19 > 100 µM | SF-268 27.9 µM | RXF 393 > 100 µM | HCT-116 70.5 µM | DU-145 85.3 µM | MCF7 19 µM | NCI/ADR-RES 39.8 µM | SK-MEL-28 > 100 µM | OVCAR-8 52.1 µM | SK-MEL-5 36.4 µM | HOP-92 > 100 µM

COC(=O)c1c(C)cccc1/C=C1/Cc2c(C)cccc2C1=O
inactive: MDA-MB-435 > 100 µM | HOP-62 > 100 µM | EKVX > 100 µM | IGROV-1 > 100 µM | OVCAR-3 > 100 µM | SNB-75 > 100 µM | LOX IMVI 20.5 µM | PC-3 > 100 µM | SF-268 > 100 µM | RXF 393 25.4 µM | HCT-116 > 100 µM | DU-145 > 100 µM | MCF7 8.97 µM | NCI/ADR-RES > 100 µM | SK-MEL-28 > 100 µM | OVCAR-8 > 100 µM | SK-MEL-5 9.93 µM | NCI-H23 > 100 µM | HOP-92 58.1 µM

Nc1ncc(CN2CCOCC2)c(-c2ccccc2O)n1
inactive: MDA-MB-435 > 100 µM | HOP-62 > 100 µM | EKVX > 100 µM | IGROV-1 > 100 µM | OVCAR-3 > 100 µM | SNB-75 > 100 µM | LOX IMVI > 100 µM | PC-3 > 100 µM | SF-268 > 100 µM | RXF 393 > 100 µM | HCT-116 > 100 µM | DU-145 > 100 µM | MCF7 > 100 µM | NCI/ADR-RES > 100 µM | SK-MEL-28 > 100 µM | OVCAR-8 > 100 µM | SK-MEL-5 > 100 µM | NCI-H23 > 100 µM | HOP-92 > 100 µM

O/N=C(\CC(O)(C(F)(F)F)C(F)(F)F)c1cccc(Cl)c1
inactive: MDA-MB-435 25.8 µM | EKVX 22.2 µM | IGROV-1 27.1 µM | OVCAR-3 19.8 µM | SNB-75 18.2 µM | LOX IMVI 23 µM | PC-3 29.9 µM | RXF 393 15.6 µM | HCT-116 37.4 µM | DU-145 40.6 µM | MCF7 35 µM | NCI/ADR-RES 38 µM | SK-MEL-28 41.1 µM | OVCAR-8 37.4 µM | SK-MEL-5 16.6 µM | NCI-H23 20.5 µM | HOP-92 23.1 µM

CC(=O)Oc1cc2c(c3ncccc13)OC(C)(C)C2
inactive: MDA-MB-435 3.33 µM | HOP-62 5.85 µM | IGROV-1 2.29 µM | OVCAR-3 11.5 µM | SNB-75 2.06 µM | PC-3 20.7 µM | SF-268 10.8 µM | RXF 393 12.4 µM | HCT-116 13.4 µM | DU-145 15.1 µM | MCF7 16.7 µM | NCI/ADR-RES 2.95 µM | SK-MEL-28 15.2 µM | OVCAR-8 14.2 µM | SK-MEL-5 12.5 µM | NCI-H23 > 100 µM | HOP-92 13 µM

CNC(=O)Nc1nc2cc([N+](=O)[O-])ccc2[nH]1
inactive: MDA-MB-435 > 100 µM | HOP-62 > 100 µM | EKVX > 100 µM | IGROV-1 64.6 µM | OVCAR-3 > 100 µM | LOX IMVI > 100 µM | PC-3 > 100 µM | SNB-19 > 100 µM | SF-268 > 100 µM | RXF 393 > 100 µM | HCT-116 > 100 µM | DU-145 > 100 µM | MCF7 > 100 µM | NCI/ADR-RES > 100 µM | SK-MEL-28 > 100 µM | OVCAR-8 > 100 µM | SK-MEL-5 > 100 µM | NCI-H23 > 100 µM | HOP-92 86.1 µM

CCOC(=S)SSSC(=S)OCC
inactive: MDA-MB-435 54.3 µM | HOP-62 30.3 µM | EKVX 48.5 µM | OVCAR-3 26.4 µM | SNB-75 28.2 µM | LOX IMVI 25.1 µM | PC-3 > 100 µM | SNB-19 65 µM | SF-268 71.3 µM | RXF 393 47.9 µM | HCT-116 20.8 µM | DU-145 21 µM | MCF7 28.2 µM | NCI/ADR-RES 58.1 µM | SK-MEL-28 > 100 µM | OVCAR-8 13.8 µM | SK-MEL-5 36.1 µM | NCI-H23 33.4 µM | HOP-92 > 100 µM
